In the NIST ThermoML archive (doi:10.1021/acs.jced.8b00132):
Where “and” joins values, the source holds several entries; their conditions need not be identical. Equal entries are not always repeated.

O=C(C(F)(F)C(F)(F)F)C(F)(C(F)(F)F)C(F)(F)F [dodecafluoro-2-methylpentan-3-one]
Details | thermal conductivity
416.9 K, 36 kPa, Gas, hot wire | 0.02006 W/m/K
416.9 K, 371 kPa, Gas, hot wire | 0.0221 W/m/K
416.9 K, 588 kPa, Gas, hot wire | 0.02223 W/m/K
416.9 K, 16292 kPa, Liquid, transient hot wire | 0.05129 W/m/K
416.91 K, 372 kPa, Gas, hot wire | 0.02173 W/m/K
416.94 K, 50897 kPa, Liquid, transient hot wire | 0.06577 W/m/K
416.94 K, 50918 kPa, Liquid, transient hot wire | 0.06559 W/m/K
416.96 K, 1022 kPa, Gas, transient hot wire | 0.02164 W/m/K
416.96 K, 2206 kPa, Liquid, transient hot wire | 0.04045 W/m/K
416.96 K, 24851 kPa, Liquid, transient hot wire | 0.05549 W/m/K
416.96 K, 24868 kPa, Liquid, transient hot wire | 0.05555 W/m/K
416.96 K, 35761 kPa, Liquid, transient hot wire | 0.06013 W/m/K
416.97 K, 1022 kPa, Gas, transient hot wire | 0.02164 W/m/K
416.97 K, 2207 kPa, Liquid, transient hot wire | 0.04051 W/m/K
416.97 K, 35765 kPa, Liquid, transient hot wire | 0.06009 W/m/K
416.98 K, 10573 kPa, Liquid, transient hot wire | 0.04835 W/m/K
416.98 K, 10595 kPa, Liquid, transient hot wire | 0.04788 W/m/K
417 K, 369 kPa, Gas, hot wire | 0.0224 W/m/K
417 K, 1132 kPa, Gas, transient hot wire | 0.02284 W/m/K
417.01 K, 369 kPa, Gas, hot wire | 0.02218 W/m/K
417.01 K, 1132 kPa, Gas, transient hot wire | 0.02288 W/m/K
417.02 K, 6421 kPa, Liquid, transient hot wire | 0.04518 W/m/K
417.03 K, 36 kPa, Gas, hot wire | 0.01958 W/m/K
417.04 K, 587 kPa, Gas, hot wire | 0.0216 W/m/K
417.04 K, 6421 kPa, Liquid, transient hot wire | 0.0448 W/m/K
417.05 K, 587 kPa, Gas, hot wire | 0.02156 W/m/K
417.06 K, 16291 kPa, Liquid, transient hot wire | 0.05136 W/m/K
417.06 K, 16299 kPa, Liquid, transient hot wire | 0.05141 W/m/K
417.07 K, 1170 kPa, Liquid, transient hot wire | 0.03917 W/m/K
417.07 K, 50875 kPa, Liquid, transient hot wire | 0.06482 W/m/K
417.08 K, 3783 kPa, Liquid, transient hot wire | 0.04192 W/m/K
417.08 K, 3784 kPa, Liquid, transient hot wire | 0.04234 W/m/K
417.08 K, 50878 kPa, Liquid, transient hot wire | 0.06554 W/m/K
417.11 K, 1022 kPa, Gas, transient hot wire | 0.02183 W/m/K
417.11 K, 1023 kPa, Gas, transient hot wire | 0.02181 W/m/K
417.11 K, 24870 kPa, Liquid, transient hot wire | 0.05563 W/m/K
417.11 K, 35758 kPa, Liquid, transient hot wire | 0.06018 W/m/K
417.11 K, 35760 kPa, Liquid, transient hot wire | 0.06018 W/m/K
417.12 K, 368 kPa, Gas, hot wire | 0.02238 W/m/K
417.12 K, 24862 kPa, Liquid, transient hot wire | 0.05569 W/m/K
417.13 K, 2206 kPa, Liquid, transient hot wire | 0.04049 W/m/K
417.13 K, 10587 kPa, Liquid, transient hot wire | 0.0479 W/m/K
417.14 K, 36 kPa, Gas, hot wire | 0.02006 W/m/K
417.15 K, 141 kPa, Gas, hot wire | 0.02023 W/m/K and 0.0203 W/m/K
417.15 K, 588 kPa, Gas, hot wire | 0.02157 W/m/K
417.15 K, 2206 kPa, Liquid, transient hot wire | 0.04048 W/m/K
417.15 K, 10596 kPa, Liquid, transient hot wire | 0.04784 W/m/K
417.16 K, 36 kPa, Gas, hot wire | 0.01976 W/m/K
417.16 K, 367 kPa, Gas, hot wire | 0.02181 W/m/K
417.16 K, 587 kPa, Gas, hot wire | 0.02144 W/m/K
417.17 K, 1132 kPa, Gas, transient hot wire | 0.02232 W/m/K
417.21 K, 6422 kPa, Liquid, transient hot wire | 0.04496 W/m/K
417.21 K, 50843 kPa, Liquid, transient hot wire | 0.06558 W/m/K
417.22 K, 6424 kPa, Liquid, transient hot wire | 0.04481 W/m/K
417.22 K, 16290 kPa, Liquid, transient hot wire | 0.05134 W/m/K
417.23 K, 16286 kPa, Liquid, transient hot wire | 0.05137 W/m/K
417.23 K, 50866 kPa, Liquid, transient hot wire | 0.06561 W/m/K
417.27 K, 36 kPa, Gas, hot wire | 0.02022 W/m/K and 0.02032 W/m/K
417.28 K, 1023 kPa, Gas, transient hot wire | 0.02198 W/m/K and 0.02197 W/m/K
417.28 K, 3783 kPa, Liquid, transient hot wire | 0.04235 W/m/K
417.28 K, 3784 kPa, Liquid, transient hot wire | 0.04243 W/m/K
417.28 K, 24853 kPa, Liquid, transient hot wire | 0.0557 W/m/K
417.28 K, 24856 kPa, Liquid, transient hot wire | 0.0557 W/m/K
417.28 K, 35752 kPa, Liquid, transient hot wire | 0.06016 W/m/K
417.28 K, 35756 kPa, Liquid, transient hot wire | 0.06019 W/m/K
417.29 K, 367 kPa, Gas, hot wire | 0.02172 W/m/K
417.29 K, 996 kPa, Gas, transient hot wire | 0.02211 W/m/K and 0.02184 W/m/K
417.31 K, 140 kPa, Gas, hot wire | 0.02018 W/m/K
417.32 K, 140 kPa, Gas, hot wire | 0.02001 W/m/K
417.32 K, 10582 kPa, Liquid, transient hot wire | 0.04781 W/m/K
417.32 K, 10584 kPa, Liquid, transient hot wire | 0.04786 W/m/K
417.33 K, 788 kPa, Gas, transient hot wire | 0.02096 W/m/K
417.33 K, 791 kPa, Gas, transient hot wire | 0.02134 W/m/K
417.33 K, 2205 kPa, Liquid, transient hot wire | 0.04065 W/m/K
417.34 K, 2205 kPa, Liquid, transient hot wire | 0.0406 W/m/K
417.36 K, 50814 kPa, Liquid, transient hot wire | 0.06551 W/m/K
417.37 K, 50821 kPa, Liquid, transient hot wire | 0.0652 W/m/K
417.39 K, 16280 kPa, Liquid, transient hot wire | 0.05131 W/m/K
417.4 K, 6421 kPa, Liquid, transient hot wire | 0.0453 W/m/K
417.4 K, 6422 kPa, Liquid, transient hot wire | 0.04487 W/m/K
417.41 K, 597 kPa, Gas, transient hot wire | 0.02073 W/m/K
417.42 K, 36 kPa, Gas, hot wire | 0.02028 W/m/K and 0.02029 W/m/K
417.43 K, 595 kPa, Gas, transient hot wire | 0.02069 W/m/K
417.43 K, 1024 kPa, Gas, transient hot wire | 0.02226 W/m/K and 0.02228 W/m/K
